Laboratory results published in ChEMBL document CHEMBL4411322 (J Med Chem, 2019).
Activity calls are given as the source filed them. The rule behind the calls is not given here. Non-standard residues stand in square brackets, D forms with d. Residues, ends and D or L forms follow the SMILES beside them. Groups on a side chain read outwards from the residue. *: point of attachment. BODIPY(FL) = CC1=CC(C)=[N+]2C1=Cc1ccc(CCC(=O)*)n1[B-]2(F)F; NMeK = CN[C@@H](CCCCN)C(=O)O; Ahx = NCCCCCC(=O)O

Columns and labels:
Integrin alpha-V/beta-5 = Integrin alpha-V/beta-5 (Homo sapiens, UniProt P06756+P18084); assay: Inhibition of human vitronectin binding to human integrin alphavbeta5 receptor after 1 hr by solid-phase binding assay; assay type: protein-complex assay
Chain of Integrin alpha-V/beta-5 (P06756 31-889 limits assumed): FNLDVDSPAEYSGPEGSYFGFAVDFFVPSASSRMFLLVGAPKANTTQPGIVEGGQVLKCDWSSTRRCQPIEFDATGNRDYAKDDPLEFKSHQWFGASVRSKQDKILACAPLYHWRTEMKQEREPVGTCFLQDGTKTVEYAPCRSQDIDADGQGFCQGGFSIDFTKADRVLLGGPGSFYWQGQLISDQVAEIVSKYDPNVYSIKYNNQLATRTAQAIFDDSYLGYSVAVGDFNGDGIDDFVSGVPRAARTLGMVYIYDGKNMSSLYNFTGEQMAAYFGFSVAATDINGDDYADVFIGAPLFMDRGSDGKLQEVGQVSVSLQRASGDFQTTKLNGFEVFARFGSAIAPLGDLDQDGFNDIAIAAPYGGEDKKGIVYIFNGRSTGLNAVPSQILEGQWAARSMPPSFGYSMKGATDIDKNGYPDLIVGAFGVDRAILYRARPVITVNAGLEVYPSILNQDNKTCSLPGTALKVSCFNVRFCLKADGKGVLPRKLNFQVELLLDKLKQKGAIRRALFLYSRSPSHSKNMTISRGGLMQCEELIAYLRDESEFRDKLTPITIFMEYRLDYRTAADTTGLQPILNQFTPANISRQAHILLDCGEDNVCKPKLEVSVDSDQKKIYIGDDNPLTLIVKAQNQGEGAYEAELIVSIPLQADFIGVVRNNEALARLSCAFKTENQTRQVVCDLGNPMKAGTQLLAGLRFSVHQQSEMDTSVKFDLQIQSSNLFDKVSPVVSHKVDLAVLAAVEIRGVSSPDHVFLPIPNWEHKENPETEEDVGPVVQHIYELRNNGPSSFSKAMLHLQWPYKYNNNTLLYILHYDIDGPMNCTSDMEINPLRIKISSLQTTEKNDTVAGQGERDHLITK
Chain of Integrin alpha-V/beta-5 (P06756 891-1048 limits assumed): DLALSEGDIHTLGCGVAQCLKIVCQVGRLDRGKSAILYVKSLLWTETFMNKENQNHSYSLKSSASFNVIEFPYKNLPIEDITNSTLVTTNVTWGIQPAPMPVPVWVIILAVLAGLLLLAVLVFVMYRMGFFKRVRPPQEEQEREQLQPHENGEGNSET
Chain of Integrin alpha-V/beta-5 (P18084 24-799 limits assumed): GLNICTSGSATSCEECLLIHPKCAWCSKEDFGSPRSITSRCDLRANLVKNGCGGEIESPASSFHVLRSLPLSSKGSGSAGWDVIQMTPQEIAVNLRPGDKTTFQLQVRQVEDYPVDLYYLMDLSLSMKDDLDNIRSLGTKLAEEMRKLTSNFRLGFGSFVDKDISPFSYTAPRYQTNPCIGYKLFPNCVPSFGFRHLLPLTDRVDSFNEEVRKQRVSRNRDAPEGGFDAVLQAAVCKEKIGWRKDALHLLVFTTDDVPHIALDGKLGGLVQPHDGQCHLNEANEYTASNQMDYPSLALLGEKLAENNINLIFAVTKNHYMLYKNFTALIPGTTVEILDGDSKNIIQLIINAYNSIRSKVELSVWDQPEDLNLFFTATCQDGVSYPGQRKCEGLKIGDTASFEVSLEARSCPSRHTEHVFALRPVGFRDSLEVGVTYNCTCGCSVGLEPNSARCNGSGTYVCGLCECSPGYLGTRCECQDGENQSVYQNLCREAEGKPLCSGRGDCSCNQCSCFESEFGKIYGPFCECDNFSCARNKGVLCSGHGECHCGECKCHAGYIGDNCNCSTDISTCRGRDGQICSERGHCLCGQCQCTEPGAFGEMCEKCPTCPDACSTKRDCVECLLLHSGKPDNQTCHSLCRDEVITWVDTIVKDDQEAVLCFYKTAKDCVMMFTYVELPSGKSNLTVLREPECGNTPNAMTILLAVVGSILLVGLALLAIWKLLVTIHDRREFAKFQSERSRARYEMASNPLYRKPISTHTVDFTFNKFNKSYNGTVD

[1] = target: Integrin alpha-IIb/beta-3 (Homo sapiens, UniProt P05106+P08514); assay: Inhibition of human fibrinogen binding to human platelet integrin alpha2b-beta3 receptor after 1 hr by solid-phase binding assay
Integrin alpha-V/beta-6 = Integrin alpha-V/beta-6 (Homo sapiens, UniProt P06756+P18564); assay: Inhibition of LAP binding to human integrin alphavbeta6 receptor after 1 hr by solid-phase binding assay; assay type: protein-complex assay; settings: read-out: IC50
Chain of Integrin alpha-V/beta-6 (P06756 31-889 limits assumed): as the sequence (P06756 31-889 limits assumed) above
Chain of Integrin alpha-V/beta-6 (P06756 891-1048 limits assumed): as the sequence (P06756 891-1048 limits assumed) above
Chain of Integrin alpha-V/beta-6 (P18564 22-788 limits assumed): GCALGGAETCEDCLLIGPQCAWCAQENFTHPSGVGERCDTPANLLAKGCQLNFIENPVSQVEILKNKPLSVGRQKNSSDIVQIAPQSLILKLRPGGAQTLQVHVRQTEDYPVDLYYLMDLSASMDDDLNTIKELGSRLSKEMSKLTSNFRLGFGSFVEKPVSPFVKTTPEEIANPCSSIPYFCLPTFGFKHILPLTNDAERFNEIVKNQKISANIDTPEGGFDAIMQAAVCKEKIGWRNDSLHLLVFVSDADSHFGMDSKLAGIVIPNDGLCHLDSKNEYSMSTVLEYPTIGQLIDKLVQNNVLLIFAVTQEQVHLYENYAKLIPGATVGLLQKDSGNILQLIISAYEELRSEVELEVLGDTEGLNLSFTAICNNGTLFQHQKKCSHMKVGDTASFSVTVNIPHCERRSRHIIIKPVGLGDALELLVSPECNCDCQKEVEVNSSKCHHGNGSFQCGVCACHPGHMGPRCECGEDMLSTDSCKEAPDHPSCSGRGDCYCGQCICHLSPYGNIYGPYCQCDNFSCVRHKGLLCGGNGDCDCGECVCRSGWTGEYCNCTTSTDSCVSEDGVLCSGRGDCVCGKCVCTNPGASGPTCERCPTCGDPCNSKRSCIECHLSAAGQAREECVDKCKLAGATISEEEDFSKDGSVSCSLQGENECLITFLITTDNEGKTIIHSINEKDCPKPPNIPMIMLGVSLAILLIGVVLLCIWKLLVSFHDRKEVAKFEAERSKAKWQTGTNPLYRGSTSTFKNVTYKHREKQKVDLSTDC

Integrin alpha-V/beta-8 [2] = target: T1, Integrin alpha-V/beta-8 (Homo sapiens, UniProt P06756+P26012); assay: Inhibition of LAP binding to human integrin alphavbeta8 receptor after 1 hr by solid-phase binding assay; assay type: protein-complex assay; settings: read-out: IC50
Target sequence in this assay (P06756 31-889 limits assumed): as the sequence (P06756 31-889 limits assumed) above
Target sequence in this assay (P06756 891-1048 limits assumed): as the sequence (P06756 891-1048 limits assumed) above
Target sequence in this assay (P26012 43-769 limits assumed): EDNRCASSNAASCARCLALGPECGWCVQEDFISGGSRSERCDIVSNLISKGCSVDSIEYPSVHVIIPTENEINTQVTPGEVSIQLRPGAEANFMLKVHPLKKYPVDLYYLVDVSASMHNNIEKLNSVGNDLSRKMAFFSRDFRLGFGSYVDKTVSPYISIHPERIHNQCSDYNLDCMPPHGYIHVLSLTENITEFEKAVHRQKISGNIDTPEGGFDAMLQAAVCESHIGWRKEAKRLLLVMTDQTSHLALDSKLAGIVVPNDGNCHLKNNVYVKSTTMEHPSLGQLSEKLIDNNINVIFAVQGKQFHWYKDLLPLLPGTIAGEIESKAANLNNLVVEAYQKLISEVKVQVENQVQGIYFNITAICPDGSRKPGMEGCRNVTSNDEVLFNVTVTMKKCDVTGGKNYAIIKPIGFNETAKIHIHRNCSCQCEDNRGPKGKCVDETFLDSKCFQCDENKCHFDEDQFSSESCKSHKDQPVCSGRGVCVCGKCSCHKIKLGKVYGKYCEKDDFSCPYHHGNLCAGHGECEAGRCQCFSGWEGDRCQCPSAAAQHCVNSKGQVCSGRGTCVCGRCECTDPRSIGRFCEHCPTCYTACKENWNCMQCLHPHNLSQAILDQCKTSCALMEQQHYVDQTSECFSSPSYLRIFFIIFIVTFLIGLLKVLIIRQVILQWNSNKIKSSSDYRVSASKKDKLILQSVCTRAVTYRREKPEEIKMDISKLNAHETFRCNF

Homo sapiens = organism: Homo sapiens; assay: Selectivity ratio of IC50 for human integrin alphavbeta6 receptor to IC50 for human integrin alphavbeta8 receptor
Integrin alpha-V/beta-3 = Integrin alpha-V/beta-3 (Homo sapiens, UniProt P05106+P06756); assay: Inhibition of human vitronectin binding to human integrin alphavbeta3 receptor after 1 hr by solid-phase binding assay; assay type: protein-complex assay
Chain of Integrin alpha-V/beta-3 (P05106 27-788 limits assumed): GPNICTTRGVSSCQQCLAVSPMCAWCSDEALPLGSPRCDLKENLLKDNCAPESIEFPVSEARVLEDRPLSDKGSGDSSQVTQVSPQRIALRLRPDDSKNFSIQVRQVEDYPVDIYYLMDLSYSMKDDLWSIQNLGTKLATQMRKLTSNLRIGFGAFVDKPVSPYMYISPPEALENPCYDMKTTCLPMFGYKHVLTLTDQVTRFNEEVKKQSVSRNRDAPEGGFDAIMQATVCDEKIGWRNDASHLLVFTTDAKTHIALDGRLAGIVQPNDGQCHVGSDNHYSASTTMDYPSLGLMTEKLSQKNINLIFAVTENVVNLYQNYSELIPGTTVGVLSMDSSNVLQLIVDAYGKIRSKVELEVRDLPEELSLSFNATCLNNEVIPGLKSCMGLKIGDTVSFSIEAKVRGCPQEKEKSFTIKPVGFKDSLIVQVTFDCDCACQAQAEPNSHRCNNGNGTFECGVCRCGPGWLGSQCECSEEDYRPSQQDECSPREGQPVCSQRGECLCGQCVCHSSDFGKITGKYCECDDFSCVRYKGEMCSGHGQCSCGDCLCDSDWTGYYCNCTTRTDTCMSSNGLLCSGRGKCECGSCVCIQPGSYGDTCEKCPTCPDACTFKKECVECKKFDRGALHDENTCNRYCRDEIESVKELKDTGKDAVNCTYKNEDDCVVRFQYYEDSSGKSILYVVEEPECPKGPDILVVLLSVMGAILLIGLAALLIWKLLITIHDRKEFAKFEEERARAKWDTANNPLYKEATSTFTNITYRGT
Chain of Integrin alpha-V/beta-3 (P06756 31-889 limits assumed): as the sequence (P06756 31-889 limits assumed) above
Chain of Integrin alpha-V/beta-3 (P06756 891-1048 limits assumed): as the sequence (P06756 891-1048 limits assumed) above

Integrin alpha-5/beta-1 = Integrin alpha-5/beta-1 (Homo sapiens, UniProt P05556+P08648); assay: Inhibition of human fibronectin binding to human integrin alpha5beta1 receptor after 1 hr by solid-phase binding assay; assay type: protein-complex assay
[3] = Stability in 90% human serum assessed as drug degradation at 1 mM after 180 mins by HPLC analysis; assay type: ADME, cell-free; settings: 3 h, 1000 µM
Integrin alpha-V/beta-8 [4] = target: T1, Integrin alpha-V/beta-8; assay: Binding affinity to alphavbeta8 in human REC cells assessed as fluorescence intensity at 10 uM after 1 hr using BDP FL-labeled compound by immunocytochemical analysis; assay type: cell-based
Integrin alpha-V/beta-8 [5] = target: T1, Integrin alpha-V/beta-8; assay: Binding affinity to alphavbeta8 in human BHY cells assessed as fluorescence intensity at 10 uM after 1 hr using BDP FL-labeled compound by immunocytochemical analysis; assay type: cell-based
Integrin alpha-V/beta-8 [6] = target: T1, Integrin alpha-V/beta-8; assay: Binding affinity to alphavbeta8 in human HN cells assessed as fluorescence intensity at 10 uM after 1 hr using BDP FL-labeled compound by immunocytochemical analysis; assay type: cell-based
Integrin alpha-V/beta-8 [7] = target: T1, Integrin alpha-V/beta-8; assay: Binding affinity to alphavbeta8 in TGF-beta1 stimulated human REC cells assessed as fluorescence intensity at 10 uM after 1 hr using fluorescence-labeled compound by immunocytochemical analysis
Integrin alpha-V/beta-8 [8] = target: T1, Integrin alpha-V/beta-8; assay: Binding affinity to alphavbeta8 in TGF-beta1 stimulated human BHY cells assessed as fluorescence intensity at 10 uM after 1 hr using fluorescence-labeled compound in presence of 10 molar excess peptide 2 by immunocytochemical analysis; assay type: cell-based
Integrin alpha-V/beta-8 [9] = target: T1, Integrin alpha-V/beta-8; assay: Binding affinity to alphavbeta8 in TGF-beta1 stimulated human HN cells assessed as fluorescence intensity at 10 uM after 1 hr using in presence of 10 to 20 molar excess peptide 2 by immunocytochemical analysis relative to control
Integrin alpha-V/beta-8 [10] = target: T1, Integrin alpha-V/beta-8; assay: Binding affinity to alphavbeta8 in TGF-beta1 stimulated human BHY cells assessed as fluorescence intensity at 10 uM after 1 hr using fluorescence-labeled compound in presence of 10 molar excess peptide 1a by immunocytochemical analysis; assay type: cell-based
Integrin alpha-V/beta-8 [11] = target: T1, Integrin alpha-V/beta-8; assay: Binding affinity to alphavbeta8 in TGF-beta1 stimulated human BHY cells assessed as fluorescence intensity at 10 uM after 1 hr using in presence of 5 to 100 molar excess peptide 1a by immunocytochemical analysis relative to control; assay type: cell-based
[12] = Stability in 90% human serum assessed as drug degradation at 1 mM after 15 mins by HPLC analysis; assay type: ADME, cell-free; settings: read-out: Drug degradation
[13] = Stability in 90% human serum assessed as drug degradation at 1 mM after 60 mins by HPLC analysis; assay type: ADME, cell-free; settings: read-out: Drug degradation

Row | SMILES | IC50 (Integrin alpha-V/beta-6) | IC50 (Integrin alpha-V/beta-8 [2]) | Ratio IC50 (Homo sapiens) | further results
1 | CC(C)C[C@@H]1NC(=O)[C@H](CC(=O)O)NC(=O)CNC(=O)[C@H](CCCNC(=N)N)NC(=O)[C@H](C)NC(=O)[C@@H]2CCCN2C(=O)[C@H]2CCCN2C(=O)[C@H](Cc2ccccc2)NC(=O)[C@H](C)NC1=O (cyclo(ARGDLAF[dP]P)) | – | – | – | IC50 (Integrin alpha-V/beta-5): > 1000 nM; IC50 [1]: > 1000 nM
2 | CC(=O)NCCCC[C@@H]1C(=O)N2CCC[C@H]2C(=O)NCC(=O)N[C@@H](CC(C)C)C(=O)N[C@@H](CCCNC(=N)N)C(=O)NCC(=O)N[C@@H](CC(=O)O)C(=O)N[C@@H](CC(C)C)C(=O)N1C | 215 nM | 57 nM | 3.8 | –
3 | CCNC(=N)NCCC[C@@H]1NC(=O)[C@H](CC(C)C)NC(=O)CNC(=O)[C@@H]2CCCN2C(=O)[C@H]2CCCN2C(=O)[C@H](CC(C)C)NC(=O)[C@H](CC(=O)O)NC(=O)CNC1=O | 769 nM | 38 nM | 20 | –
4 | CC[C@H](C)[C@@H]1NC(=O)[C@H](CC(=O)O)NC(=O)CNC(=O)[C@H](CCCNC(=N)N)NC(=O)[C@H](Cc2ccccc2)NC(=O)[C@H](C)NC(=O)[C@@H]2CCCN2C(=O)[C@H]2CCCN2C1=O | 707 nM | 169 nM | 4.2 | –
5 | CC(=O)NCCCC[C@H]1C(=O)NCC(=O)N[C@@H](CC(C)C)C(=O)N[C@@H](CCCNC(=N)N)C(=O)NCC(=O)N[C@@H](CC(=O)O)C(=O)N[C@@H](CC(C)C)C(=O)N2CCC[C@@H]2C(=O)N1C (cyclo(RGDL[dP][NMeK](Ac)GL)) | 99 nM | 8 nM | 12 | IC50 (Integrin alpha-V/beta-3): 343 nM; IC50 (Integrin alpha-V/beta-5): > 1000 nM; IC50 (Integrin alpha-5/beta-1): > 1000 nM; IC50 [1]: > 1000 nM; Stability [3]: Stable
6 | CC(C)C[C@@H]1NC(=O)[C@H](C)NC(=O)[C@@H]2CCCN2C(=O)[C@@H](CC(C)C)N(C)C(=O)[C@H](CC(C)C)NC(=O)[C@H](CC(=O)O)NC(=O)CNC(=O)[C@H](CCCNC(=N)N)NC1=O | 95 nM | 15 nM | 6.3 | –
7 | CC(=O)NC1C[C@H]2C(=O)NCC(=O)N[C@@H](CC(C)C)C(=O)N[C@@H](CCCNC(=N)N)C(=O)NCC(=O)N[C@@H](CC(=O)O)C(=O)N[C@@H](CC(C)C)C(=O)N3CCC[C@@H]3C(=O)N2C1 (stereo partly specified) | 223 nM | 10.5 nM | 21 | –
8 | CC(C)C[C@@H]1NC(=O)[C@H](CC(=O)O)NC(=O)[C@H](CO)NC(=O)[C@H](CCCNC(=N)N)NC(=O)[C@H](Cc2ccccc2)NC(=O)[C@H](C)NC(=O)[C@@H]2CCCN2C(=O)[C@H]2CCCN2C1=O | 369 nM | 5.8 nM | 64 | –
9 | CC(C)C[C@@H]1NC(=O)CNC(=O)[C@@H]2CCCN2C(=O)[C@H]2CCCN2C(=O)[C@H](CC(C)C)NC(=O)[C@H](CC(=O)O)NC(=O)CNC(=O)[C@H](CCCNC(=N)N)NC1=O (cyclo(RGDL[dP]PGL)) | 160 nM | 4.5 nM | 36 | IC50 (Integrin alpha-V/beta-3): > 1000 nM; IC50 (Integrin alpha-V/beta-5): > 1000 nM; IC50 (Integrin alpha-5/beta-1): > 1000 nM; IC50 [1]: > 1000 nM
10 | CC1=CC(C)=[N+]2C1=Cc1ccc(CCC(=O)NCCCCCC(=O)NCCCC[C@@H]3NC(=O)[C@@H](Cc4ccccc4)NC(=O)[C@H](CC(=O)O)NC(=O)CCNC(=O)[C@H](CCCNC(=N)N)NC3=O)n1[B-]2(F)F | – | – | – | Activity (Integrin alpha-V/beta-8 [4]): inactive; Activity (Integrin alpha-V/beta-8 [5]): inactive; Activity (Integrin alpha-V/beta-8 [6]): inactive
11 | CC1=CC(C)=[N+]2C1=Cc1ccc(CCC(=O)NCCCCCC(=O)NCCCC[C@H]3C(=O)NCC(=O)N[C@@H](CC(C)C)C(=O)N[C@@H](CCCNC(=N)N)C(=O)NCC(=O)N[C@@H](CC(=O)O)C(=O)N[C@@H](CC(C)C)C(=O)N4CCC[C@@H]4C(=O)N3C)n1[B-]2(F)F (cyclo(RGDL[dP][NMeK]([Ahx-BODIPY(FL)])GL)) | 47 nM | 0.06 nM | – | IC50 (Integrin alpha-V/beta-3): 43 nM; IC50 (Integrin alpha-V/beta-5): > 1000 nM; IC50 (Integrin alpha-5/beta-1): 689 nM; IC50 [1]: > 1000 nM; Activity (Integrin alpha-V/beta-8 [7]): Active; Activity (Integrin alpha-V/beta-8 [4]): Active; Activity (Integrin alpha-V/beta-8 [5]): Active; Activity (Integrin alpha-V/beta-8 [6]): Active; Activity (Integrin alpha-V/beta-8 [8]): inactive; Activity (Integrin alpha-V/beta-8 [9]): 50%; Activity (Integrin alpha-V/beta-8 [10]): inactive; Activity (Integrin alpha-V/beta-8 [11]): inactive
12 | CC(C)C[C@@H]1NC(=O)[C@H](CC(=O)O)NC(=O)CNC(=O)[C@H](CCCNC(=N)N)NC(=O)[C@H](Cc2ccccc2)NC(=O)[C@H](CCCCN)N(C)C(=O)[C@H]2CCCN2C(=O)[C@H](Cc2ccccc2)NC(=O)[C@H](C)NC1=O | – | – | – | IC50 (Integrin alpha-V/beta-5): > 1000 nM; IC50 [1]: > 1000 nM
13 | CC(C)C[C@H](NC(=O)[C@H](CO)NC(=O)[C@H](CC(=O)O)NC(=O)[C@H](CC(C)C)NC(=O)[C@H](CC(=O)O)NC(=O)[C@@H](NC(=O)[C@@H](N)CCCNC(=N)N)[C@@H](C)O)C(=O)N[C@@H](CCCNC(=N)N)C(=O)N[C@H](C(=O)O)[C@@H](C)O | – | – | – | metabolised at 0.25 h, 1000 µM [12]: 56%; metabolised at 1 h, 1000 µM [13]: 100%

The next lines start with results.

Row | IC50 (Integrin alpha-V/beta-6) | IC50 (Integrin alpha-V/beta-8 [2]) | Ratio IC50 (Homo sapiens) | SMILES | further results
14 | 140 nM | 47.4 nM | 2.9 | CC(C)C[C@@H]1NC(=O)[C@H](C)NC(=O)[C@H](C)NC(=O)[C@@H]2CCCN2C(=O)[C@H]2CCCN2C(=O)[C@H](CC(C)C)NC(=O)[C@H](CC(=O)O)NC(=O)CNC(=O)[C@H](CCCNC(=N)N)NC(=O)[C@H](C)NC1=O | –
15 | 42.4 nM | 15.9 nM | 2.7 | CC(C)C[C@@H]1NC(=O)[C@H](CC(=O)O)NC(=O)CNC(=O)[C@H](CCCNC(=N)N)NC(=O)CNC(=O)[C@H](C)NC(=O)[C@@H]2CCCN2C(=O)[C@H]2CCCN2C1=O | –
16 | 81.3 nM | 1.83 nM | 44.1 | CC(C)C[C@@H]1NC(=O)[C@H](CC(=O)O)NC(=O)CNC(=O)[C@H](CCCNC(=N)N)NC(=O)[C@H](Cc2ccccc2)NC(=O)[C@H](C)NC(=O)[C@@H]2CCCN2C(=O)[C@H]2CCCN2C1=O | –
17 | 430 nM | 270 nM | 1.6 | CC(C)C[C@@H]1NC(=O)[C@H](C)NC(=O)[C@@H]2CCCN2C(=O)[C@H]2CCCN2C(=O)[C@H](CC(C)C)NC(=O)[C@H](CC(=O)O)NC(=O)CNC(=O)[C@H](CCCNC(=N)N)NC(=O)[C@H](C)NC(=O)[C@H](C)NC1=O | –
18 | 40.7 nM | 7.32 nM | 5.6 | CC(C)C[C@@H]1NC(=O)[C@H](CC(=O)O)NC(=O)CNC(=O)[C@H](CCCNC(=N)N)NC(=O)[C@H](CCCCN)NC(=O)[C@H](C)NC(=O)[C@@H]2CCCN2C(=O)[C@H]2CCCN2C1=O | –
